Experimental findings from PubChem BioAssay AID512 are described below.

Carbonyl reductase [NADPH] 3 (Homo sapiens), sequence (O75828 whole entry, looked up): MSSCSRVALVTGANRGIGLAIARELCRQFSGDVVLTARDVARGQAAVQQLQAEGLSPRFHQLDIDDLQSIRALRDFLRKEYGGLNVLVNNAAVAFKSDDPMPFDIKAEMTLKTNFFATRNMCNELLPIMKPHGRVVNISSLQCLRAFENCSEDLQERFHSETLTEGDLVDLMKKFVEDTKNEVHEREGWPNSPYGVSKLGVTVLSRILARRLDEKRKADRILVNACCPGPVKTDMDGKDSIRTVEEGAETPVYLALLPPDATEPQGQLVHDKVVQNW

The first assay addresses Carbonyl reductase [NADPH] 3 (Homo sapiens) (UniProt O75828). Kind of assay: ligand binding to human carbonyl reductase 3 – biophysical, DSF, SYPRO orange, recombinant protein (AID 512). The following applies: recombinant CBR3, DSF SYPRO orange thermal shift; at 10 µM; buffer 10 mM HEPES; pH 7.5; NaCl 150 mM; NADP 100 µM; protein 2 µM; stronger effect = higher value.
Turning to `Brc1ccc(-c2[nH]c(-c3c[nH]c4ccccc34)nc2-c2ccccc2)cc1`, the Tm shift is 2.1 Celsius.

On to `COc1cc(/C=C/C(=O)CC(=O)/C=C/c2ccc(O)c(OC)c2)ccc1O`, for which the Tm shift was 3.1 Celsius. Take `Cc1ccc2c(c1)=C(c1[nH]c(=S)[nH]c1O)C(=O)N=2`: the Tm shift is 2.4 Celsius.

The assay is the same for the next values; noted with them: recombinant CBR3, DSF SYPRO orange thermal shift; at 10 µM; buffer 10 mM HEPES; pH 7.5; NaCl 150 mM; protein 2 µM; stronger effect = higher value.
As for `O=C1C(=O)C(c2ccc(O)cc2)Oc2cc(O)cc(O)c21` (centres undefined), the Tm shift is 2.1 Celsius. The same measure, in the same setting: the result for `NC(=O)c1ccc[n+](C2OC(COP(=O)(O)OP(=O)(O)OCC3OC(n4cnc5c(N)ncnc54)C(OP(=O)(O)O)C3O)C(O)C2O)c1` (centres undefined) reads 4.4 Celsius. The same measure, in the same setting: then `O=C1C(=O)C(c2ccc(O)cc2O)Oc2cc(O)cc(O)c21` (centres undefined), with 2.2 Celsius; and `CCN(CC)C(=S)SSC(=S)N(CC)CC`, with 2.5 Celsius; and `O=c1oc2cc(O)ccc2c2oc3cc(O)ccc3c12`, with 3.1 Celsius.

The same assay, now with this note: recombinant CBR3, DSF SYPRO orange thermal shift; measured here: second experiment Tm shift; at 10 µM; run 2; buffer 10 mM HEPES; pH 7.5; NaCl 150 mM; NADP 100 µM; protein 2 µM; stronger effect = higher value.
In the case of `COc1cc(/C=C/C(=O)CC(=O)/C=C/c2ccc(O)c(OC)c2)ccc1O`, the Tm shift is 2.4 Celsius.
